Read-outs that look alike come from different tables or passages of the source.
Tests used:
[1] = Sensory evaluation of 472 ppm RebM80 + Brazzein in citric base; assay type: in vivo, human; conditions: Brazzein 1-15 ppm in 472 ppm of RebM80
Excerpt: Example 6: Brazzein+Reb M (Taste Modifying Composition)

[2] = Sensory evaluation of 400 ppm A95 + Brazzein in citric base; assay type: in vivo, human; conditions: Brazzein 5 ppm to 20 ppm in 400 ppm of A95
Excerpt: Example 7: Brazzein+Reb A95 (Taste Modifying Composition)
“A95” refers to a steviol glycoside blend comprising primarily reb D and reb M. Methods of obtaining A95 are provided in WO 2017/059414, incorporated herein by reference.

[3] = cited from earlier work
[4] = cited from earlier work; remark: listed apart in the source
[5] = cited from earlier work; remark: listed apart in the source

Question: Which results are given for “Brazzein: small, sweet-tasting protein from Pentadiplandra brazzeana Baillon; 53-amino acid minor form, SEQ ID NO: 1 (DKCKKVYENYPVSKCQLANQCNYDCKLDKHARSGECFYDEKRNLQCICDYCEY; listed as Pentadiplandra brazzeana)”?
Answer: Effect of Brazzein on taste property of 472 ppm RebM80 [1]: improves the taste property in 472 ppm of RebM80 such as, sour, less sweet, cover the bitterness and lingering. More mouthfeel, richness and fullbody.; Effect of Brazzein on taste of 400 ppm A95 [2]: can improve the mouthfeel, block bitterness and lingering in 400 ppm of A95; Sweet taste after incubation ([3]; 80° C. for 4.5 h in the pH range of 2.5-8): remains; Sweet taste after incubation ([3]; 98° C. for 2 h): remains; Solubility [4]: > 50 mg/mL; Water solubility [4]: > 50 mg/mL; Taste similarity to sucrose ([5]; compared with thaumatin): more similar to sucrose than that of thaumatin; Sweetness of minor form relative to major form ([5]; minor form (des-pGlu1-brazzein) vs major form (pGlu-brazzein)): nearly twice the sweetness of the major form
